# Patent US6787561B1, “Benzimidazole compounds” (Fuji Photo Film Co., Ltd., priority 1999, dated 2004)
# Like-named read-outs stand apart in the source and are kept apart here.
# Key:
# [1] = system: mouse peritoneal macrophages; test: Suppression of foaming of macrophages: cholesterol ester yield in mouse peritoneal macrophages loaded with liposomes; format: cell-based; conditions: for activity at 5 µM: Mus musculus, Peritoneal macrophage, 16 h, read-out: CE yield (%)
# Experimental: Activity of the compounds of the present invention for suppressing the foaming of macrophages, which triggers arterial sclerosis, was examined.
# (1) In vitro experiment using mouse peritoneal macrophages,
# 15-Week old female ICR mice (Nippon SLC) were subjected to bleeding by cutting off their cervicalis, and Hanks buffer (Nippon Seiyaku) was injected into their peritoneal cavities. After abdominal regions of the mice were massaged, the buffer was recovered immediately, and then the resulting buffer was centrifuged at 1,000 r.p.m. for five minutes to collect peritoneal macrophages. Then, the collected macrophages were suspended in GTI medium (Wako Pure Chemical Industries), and inoculated onto a 24-well microtiter plate. After the macrophages were cultivated at 37° C. under 5% CO2 for two hours, the culture medium was changed with Dulbecco Modified Eagle Medium (MEM, Nippon Seiyaku). The macrophages were further cultivated at 37° C. under 5% CO2 for 16 hours, and then a test compound and liposomes were added to the culture.
# 1) Test compound: dissolved in DMSO (Wako Pure Chemical Industries),
# 2) Liposomes: PC/PS/DCP/CHOL=50/50/10/75 (nmol)
# After cultivation was further continued at 37° C. under 5% CO2 for 16 hours, lipid fraction was extracted with chloroform and methanol. The extracted lipid fraction was dissolved in isopropyl alcohol, and the produced cholesterol ester (CE) was quantified by an enzymatic luminescence method. Yield of the cholesterol ester was calculated as a relative ratio based on yield of the control as 100% where no test compound was added.
# [2] = AUC (area under the plasma concentration) after oral administration to mice
# Experimental: (§1) The compounds of the present invention were orally administered to mice to evaluate AUC (area under the plasma concentration).
# (§2) 8-week old BALB/cA male mice (Charles River Japan) were conditioned for one week after arrival and then used. Each test substance was dispersed in a medium containing 10% macrogol (Yoshida Seiyaku) and 90% physiological saline (Hikari Seiyaku) to prepare 5 mg/ml test substance suspension. Each prepared suspension was orally administered to 6 mice (30 mg/kg) at the same time, and cervical spine of one mouse was dislocated at each time, i.e., immediately after the administration, and 30 minutes, 1 hour, 2 hours, 4 hours and 6 hours after the administration. The whole blood was collected from abdominal aorta and blood level of the test substance was determined by liquid chromatography.
# [3] = mouse, in vivo, po, 30 mg/kg
# Experimental: as §1, §2
# [4] = test compound 5 μM, cholesterol ester yield relative to control without test compound = 100%, smaller value = more potent suppression
# [5] = male, BALB/cA, mouse, plasma, po, 30 mg/kg
molecule,measurement,setting,value
"CC(=O)Nc1ccc2nc(SCCCCCOc3ccccn3)[nH]c2c1 [Compound 18, 5-acetylamino-2-(5-(2-pyridyloxy)pentylthio)benzimidazole]",activity at 5 µM,[1]; [4],19%
"C=C(C)n1c(OCCCCCSc2nc3ccccc3[nH]2)nc2ccccc21 [Compound 20, 2-(5-(2-benzimidazolylthio)pentyloxy)-1-isopropenyl-benzimidazole]",activity at 5 µM,[1]; [4],22%
"c1ccc2[nH]c(SCCCCCCNc3nc4ccccc4o3)nc2c1 [Compound 32, 2-(6-(2-benzoxazolylamino)hexylthio)benzimidazole]",activity at 5 µM,[1]; [4],12%
"c1ccc(OCCCCCCCCSc2nc3ccccc3[nH]2)nc1 [Compound 10, 2-(8-(2-pyridyloxy)octylthio)benzimidazole]",activity at 5 µM,[1]; [4],12%
Cn1c(OCCCCCSc2nc3ccccc3[nH]2)nc2ccccc21 [Compound 9],activity at 5 µM,[1]; [4],6.2%
same,AUC,[2]; [5],110 ng·h/mL
"c1ccc2[nH]c(SCCCCCNc3nc4ccccc4s3)nc2c1 [Compound 30, 2-(5-(2-benzothiazolylamino)pentylthio)benzimidazole]",activity at 5 µM,[1]; [4],4.2%
same,AUC,[2]; [5],230 ng·h/mL
"Cn1c(SCCCCCOc2ccccn2)nc2ccccc21 [Compound 23, 1-Methyl-2-(5-(2-pyridyloxy)pentylthio)benzimidazole]",activity at 5 µM,[1]; [4],21%
same,AUC,[2]; [5],860 ng·h/mL
"COCn1c(SCCCCCNc2cnccn2)nc2ccccc21 [Compound 28, 1-methoxymethyl-2-(5-(N-(2-pyrazyl)amino)pentylthio)-benzimidazole]",CE yield (%),[1]; [4],24%
same,AUC,[3],410 ng·h/mL
"c1ccc2[nH]c(SCCOCCNc3nc4ccccc4o3)nc2c1 [Compound 35, 2-(2-(2-(2-benzoxazolylamino)ethoxy)ethylthio)-benzimidazole]",activity at 5 µM,[1]; [4],9.7%
"c1ccc(OCCCCCCCSc2nc3ccccc3[nH]2)nc1 [Compound 13, 2-(7-(2-pyridyloxy)heptylthio)benzimidazole]",activity at 5 µM,[1]; [4],20%
same,AUC,[2]; [5],150 ng·h/mL
"c1ccc(OCCCCCCSc2nc3ccccc3[nH]2)nc1 [Compound 12, 2-(6-(2-pyridyloxy)hexylthio)benzimidazole]",activity at 5 µM,[1]; [4],13%
"c1ccc2[nH]c(OCCCCCSc3nc4ccccc4[nH]3)nc2c1 [Compound 21, 2-(5-(2-benzimidazolylthio)pentyloxy)benzimidazole]",activity at 5 µM,[1]; [4],18%
same,AUC,[2]; [5],2420 ng·h/mL
"COc1ccc2nc(SCCCCCOc3ccccn3)[nH]c2c1 [Compound 17, 5-methoxy-2-(5-(2-pyridyloxy)pentylthio)benzimidazole]",activity at 5 µM,[1]; [4],14%
same,AUC,[2]; [5],1220 ng·h/mL
"c1ccc2[nH]c(SCCOCCOCCNc3nc4ccccc4o3)nc2c1 [Compound 36, 2-(2-(2-(2-(2-benzoxazolylamino)ethoxy)ethoxy)ethylthio)-benzimidazole]",activity at 5 µM,[1]; [4],12%
same,AUC,[2]; [5],680 ng·h/mL
"CCC(=O)n1c(SCCCCCOc2ccccn2)nc2ccccc21 [Compound 24, 1-Propionyl-2-(5-(2-pyridyloxy)pentylthio)benzimidazole]",activity at 5 µM,[1]; [4],25%
c1ccc2[nH]c(SCCCCCOc3nccs3)nc2c1 [Compound 5],activity at 5 µM,[1]; [4],11%
same,AUC,[2]; [5],100 ng·h/mL
"Cc1ccc2nc(SCCCCCOc3ccccn3)[nH]c2c1 [Compound 16, 5-methyl-2-(5-(2-pyridyloxy)pentylthio)benzimidazole]",activity at 5 µM,[1]; [4],14%
same,AUC,[2]; [5],1410 ng·h/mL
"Clc1cc2nc(SCCCCCOc3ccccn3)[nH]c2cc1Cl [Compound 15, 5,6-dichloro-2-(5-(2-pyridyloxy)pentylthio)benzimidazole]",activity at 5 µM,[1]; [4],18%
same,AUC,[2]; [5],680 ng·h/mL
"c1ccc2[nH]c(SCCCCCNc3nc[nH]n3)nc2c1 [Compound 29, 2-(5-(3-(1,2,4-triazyl)amino)pentylthio)benzimidazole]",CE yield (%),[1]; [4],12%
same,AUC,[3],180 ng·h/mL
"c1ccc(OCCCCSc2nc3ccccc3[nH]2)nc1 [Compound 11, 2-(4-(2-pyridyloxy)butylthio)benzimidazole]",activity at 5 µM,[1]; [4],18%
same,AUC,[2]; [5],240 ng·h/mL
"c1ccc(OCCCCCSc2nc3ccccc3[nH]2)nc1 [Compound 1, 2-(5-(2-pyridyloxy)pentylthio)benzimidazole]",activity at 5 µM,[1]; [4],4.1%
same,AUC,[2]; [5],340 ng·h/mL
c1cnc(OCCCCCSc2nc3ccccc3[nH]2)nc1 [Compound 6],activity at 5 µM,[1]; [4],12%
same,AUC,[2]; [5],680 ng·h/mL
2-(5-(1-phenyltetrazolyl-5-oxy)pentylthio)benzimidazole [Compound 2],CE yield (%),[1],21%
same,AUC,"[2]; oral 30 mg/kg suspension, BALB/cA male mice, blood level 0 to 6 hours by liquid chromatography",1220 ng·h/mL
"c1ccc2[nH]c(SCCCCCCOc3ccncc3)nc2c1 [Compound 25, 2-(6-(4-pyridyloxy)hexylthio)benzimidazole]",activity at 5 µM,[1]; [4],2.8%
same,AUC,[2]; [5],1210 ng·h/mL
"c1ccc2[nH]c(SCCCCCOc3ccncc3)nc2c1 [Compound 19, 2-(5-(4-pyridyloxy)pentylthio)benzimidazole]",activity at 5 µM,[1]; [4],4.2%
same,AUC,[2]; [5],5520 ng·h/mL
